In patent US7342005B2, “Antibiotic compounds” (AstraZeneca UK Limited, priority 1992, dated 2008) one finds MIC data, which are given here for five molecules.

Each structure is given as a SMILES string. Values after ≈ are worked out from the molar mass of the structure shown. Like-named read-outs stand apart in the source and are kept apart here.

Assay in all cases: MIC by agar-dilution, Diagnostic Sensitivity Test
What all share (format): cell-based
What all share (conditions): inoculum 10^4 CFU/spot

The subject of one assay is E. coli TEM. The source says: (§1) The following results were obtained for representative compounds on a standard in vitro test system using Diagnostic Sensitivity Test. The antibacterial activity is described in terms of the minimum inhibitory concentration (MIC) determined by the agar-dilution technique with an inoculum size of 10^4 CFU/spot.
The subject of another assay is Enterobacter cloacae 029.
Text: as §1

The next assay has as its system Enterobacter cloacae 108.
Text: as §1

A further assay concerns S. aureus 147N.
Text: as §1

One may read the MIC as the lowest concentration that inhibits growth of the organism.

Consider `C[C@@H](O)[C@H]1C(=O)N2C(C(=O)O)=C(S[C@@H]3CN[C@H](C(=O)Nc4cc(O)cc(C(=O)O)c4)C3)[C@H](C)[C@H]12` [Example 1, (1R,5S,6S,8R,2′S,4′S)-2-(2-(3-Carboxy-5-hydroxyphenylcarbamoyl)-pyrrolidin-4-yl-thio)-6-(1-hydroxyethyl)-1-methylcarbapenem-3-carboxylic acid], for which the MIC against E. coli TEM is 0.03 µg/mL (≈ 0.061 µM); with Enterobacter cloacae 029, 0.06 µg/mL (≈ 0.122 µM); in the assay on Enterobacter cloacae 108, 1.00 µg/mL (≈ 2.03 µM); against S. aureus 147N, 0.25 µg/mL (≈ 0.509 µM).

`CC(O)C1C(=O)N2C(C(=O)O)=C(SC3CNC(C(=O)Nc4ccc(Cl)c(C(=O)O)c4)C3)C(C)[C@H]12` (stereo partly drawn) [Example 2, (1R,5S,6S,8R,2′S,4′S)-2-(2-(3-Carboxy-4-chlorophenylcarbamoyl)-pyrrolidin-4-ylthio)-6-(1-hydroxyethyl)-1-methylcarbapenem-3-carboxylic acid]: the MIC amounted to 0.02 µg/mL (≈ 0.0392 µM) in the assay on E. coli TEM, 0.03 µg/mL (≈ 0.0588 µM) with Enterobacter cloacae 029, 1.00 µg/mL (≈ 1.96 µM) against Enterobacter cloacae 108 and 0.50 µg/mL (≈ 0.98 µM) against S. aureus 147N.

Turning to `CC(O)C1C(=O)N2C(C(=O)O)=C(SC3CNC(C(=O)Nc4cccc(C(=O)O)c4)C3)C(C)[C@H]12` (stereo partly drawn) [Example 4, (1R,5S,6S,8R,2′S,4′S)-2-(2-(3-Carboxyphenylcarbamoyl)pyrrolidin-4-ylthio) -6-(1-hydroxyethyl)-1-methylcarbapenem-3-carboxylic acid], the MIC against E. coli TEM turned out to be 0.02 µg/mL (≈ 0.0421 µM); against Enterobacter cloacae 029, 0.03 µg/mL (≈ 0.0631 µM); against Enterobacter cloacae 108 it was 0.50 µg/mL (≈ 1.05 µM); against S. aureus 147N it was 0.25 µg/mL (≈ 0.526 µM).

Take `C[C@@H](O)[C@H]1C(=O)N2C(C(=O)O)=C(S[C@@H]3CN[C@H](C(=O)Nc4ccc(O)c(C(=O)O)c4)C3)[C@H](C)[C@H]12` [Example 10, (1R,5S,6S,8R,2′S,4′S)-2-(2-(3-Carboxy-4-hydroxyphenylcarbamoyl)pyrrolidin-4-ylthio)-6-(1-hydroxyethyl)-1-methylcarbapenem-3-carboxylic acid]: the MIC turned out to be 0.01 µg/mL (≈ 0.0203 µM) in the assay on E. coli TEM, 0.01 µg/mL (≈ 0.0203 µM) with Enterobacter cloacae 029, 0.25 µg/mL (≈ 0.509 µM) with Enterobacter cloacae 108 and 0.13 µg/mL (≈ 0.264 µM) in the assay with S. aureus 147N.

Consider `CO/N=C(\C(=O)N[C@@H]1C(=O)N2C(C(=O)O)=C(CSc3nc(=O)c(=O)[nH]n3C)CS[C@H]12)c1csc(N)n1` [ceftriaxone, reference compound], for which the MIC is 0.03 µg/mL (≈ 0.0541 µM) in the assay with E. coli TEM (Escherichia coli, read-out: MIC); 0.06 µg/mL (≈ 0.108 µM) with Enterobacter cloacae 029 (read-out: MIC); 32 µg/mL (≈ 57.7 µM) with Enterobacter cloacae 108 (read-out: MIC); 2 µg/mL (≈ 3.61 µM) with S. aureus 147N (Staphylococcus aureus, read-out: MIC).
